Results published in BindingDB's records for doi:10.1021/jm0613469 (Uppsala University, 2007).
Residues, ends and D or L forms follow the SMILES beside them.

Molecular target: Type-2 angiotensin II receptor (Sus scrofa)
Assay: Displacement of [125I]Ang2 from AT2 receptor in pig uterus myometrial membrane

Row | SMILES | Ki [µM]
1 | CC[C@@H](C)[C@H](NC(=O)c1cccc(Cn2ccnc2)c1)C(=O)O [(2S,3R)-2-(3-((1H-imidazol-1-yl)methyl)benzamido)-3-methylpentanoic acid] | 0.0166
2 | CC[C@@H](C)[C@H](NC(=O)[C@@H]1CCCN1C(=O)c1cccc(Cn2ccnc2)c1)C(=O)O [(2S,3R)-2-((S)-1-(3-((1H-imidazol-1-yl)methyl)benzoyl)pyrrolidine-2-carboxamido)-3-methylpentanoic acid] | > 10
3 | CC[C@@H](C)[C@H](NC(=O)[C@@H]1CCCN1C(=O)c1cccc(Cc2cnc[nH]2)c1)C(=O)O [(2S,3R)-2-((S)-1-(3-((1H-imidazol-5-yl)methyl)benzoyl)pyrrolidine-2-carboxamido)-3-methylpentanoic acid] | > 10
4 | CC[C@H](C)[C@H](NC(=O)[C@@H]1CCCN1C(=O)[C@@H](N)Cc1cnc[nH]1)C(=O)O [(2S,3R)-2-((S)-1-((S)-2-amino-3-(1H-imidazol-5-yl)propanoyl)pyrrolidine-2-carboxamido)-3-methylpentanoic acid] (H-His-Pro-Ile-OH) | > 10
5 | O=C(N[C@@H](Cc1ccccc1)C(=O)O)c1cccc(Cn2ccnc2)c1 [(S)-2-(3-((1H-imidazol-1-yl)methyl)benzamido)-3-phenylpropanoic acid] | 0.0375
6 | O=C(O)[C@H](Cc1ccccc1)NC(=O)[C@@H]1CCCN1C(=O)c1cccc(Cn2ccnc2)c1 [(S)-2-((S)-1-(3-((1H-imidazol-1-yl)methyl)benzoyl)pyrrolidine-2-carboxamido)-3-phenylpropanoic acid] | > 10
7 | O=C(O)[C@H](Cc1ccccc1)NC(=O)[C@@H]1CCCN1C(=O)c1cccc(Cc2cnc[nH]2)c1 [(S)-2-((S)-1-(3-((1H-imidazol-5-yl)methyl)benzoyl)pyrrolidine-2-carboxamido)-3-phenylpropanoic acid] | > 10
8 | CC(=O)N[C@@H](Cc1cnc[nH]1)C(=O)N1CCC[C@H]1C(=O)N[C@@H](Cc1ccccc1)C(=O)O [(S)-2-((S)-1-((S)-2-acetamido-3-(1H-imidazol-5-yl)propanoyl)pyrrolidine-2-carboxamido)-3-phenylpropanoic acid] (Ac-His-Pro-Phe-OH) | > 10
9 | N[C@@H](Cc1cnc[nH]1)C(=O)N1CCC[C@H]1C(=O)N[C@@H](Cc1ccccc1)C(=O)O [(S)-2-((S)-1-((S)-2-amino-3-(1H-imidazol-5-yl)propanoyl)pyrrolidine-2-carboxamido)-3-phenylpropanoic acid] (H-His-Pro-Phe-OH) | > 10
